Laboratory results taken from patent US20250041285A1, “MODIFYING THE […] OF A GENE ENCODING AN CYCLOOXYGENASE ENZYME BY TREATING A HUMAN SUBJECT WITH A NITROXIDE” (priority 2021, published 2025).

Tests used:
[1] = test system: COX1; assay: Treatment of human subject with Tempol, serum level of COX1; assay type: in vivo; details: 2000 mg per day for 180 days
Description: A 70-kilogram human subject over the age of 65 and having a cardiovascular disease is identified for an increased expression level of COX1. Or a 70-kilogram human subject over the age of 65 is known to have a cardiovascular disease and/or […] expression level of COX1. The human subject is administered a dose of 2000 mg of Tempol (or another nitroxide antioxidant) per day for 180 days. This may be administered in a single dose, or may be administered as a number of smaller doses over a 24-hour period: for example, four 500-mg doses at […]. Following treatment, the serum level of COX1, is decreased.
A 70-kilogram human subject at risk of developing colorectal cancer is identified for increased expression level of COX1. Or a 70-kilogram human subject is known to be at risk of developing colorectal cancer and/or have increased expression level of COX1. The human subject is administered a dose of 2000 mg of Tempol (or another nitroxide antioxidant) per day for 180 days. This may be administered in a single dose, or may be administered as a number of smaller doses over a 24-hour period: for example, four 500-mg doses at […]. Following treatment, the serum level of COX1, is decreased. […]
A 70-kilogram human subject having an infection (e.g., a bacterial, fungal, or viral infection) is identified for increased expression level of COX1. Or a 70-kilogram human subject is known to have an infection and/or have increased expression level of COX1. The human subject is administered a dose of 2000 mg of Tempol (or another nitroxide antioxidant) per day for 180 days. This may be administered in a single dose, or may be administered as a number of smaller doses over a 24-hour period: for example, four 500-mg doses at […]. Following treatment, the serum level of COX1, is decreased.

[2] = test system: PTGS1 (COX1); assay: Effects of Tempol on gene expression in cardiac tissue, chip-based microarray; assay type: in vivo; details: mice, Tempol 5 mg/g of food from 14 to 31 months after birth
Description: To assess the effects of Tempol on gene expression, Tempol was administered to experimental mice at a dose of 5 mg/g of food from 14 months to 31 months after birth. Mice receiving the same food without the addition of Tempol were used as a negative control. At the age of 31 months, the experimental animals were sacrificed and the hearts were surgically removed. The expression of a broad spectrum of genes in the cardiac tissue was assessed using chip-based microarray technology. Such chips are well known in the art and are widely used to assess gene expression.

Structure (SMILES): CC1(C)CC(O)CC(C)(C)N1[O] [Tempol, 4-hydroxy-2,2,6,6-tetramethylpiperidine-1-oxyl]
- serum level of COX1 following treatment ([1]; Example 2: 70-kilogram human subject over the age of 65 with increased COX1 expression): decreased
- serum level of COX1 following treatment ([1]; Example 3: 70-kilogram human subject with increased COX1 expression): decreased
- serum level of COX1 following treatment ([1]; Example 4: 70-kilogram human subject over the age of 65 having a cardiovascular disease): decreased
- serum level of COX1 following treatment ([1]; Example 5: 70-kilogram human subject at risk of developing colorectal cancer): decreased
- serum level of COX1 following treatment ([1]; Example 6: 70-kilogram human subject at risk of developing an autoimmune disease (e.g., rheumatoid arthritis)): decreased
- serum level of COX1 following treatment ([1]; Example 7: 70-kilogram human subject at risk of developing a condition due to aging): decreased
- serum level of COX1 following treatment ([1]; Example 8: 70-kilogram human subject at risk of developing a neurodegenerative disease (e.g., Parkinson's Disease)): decreased
- serum level of COX1 following treatment ([1]; Example 9: 70-kilogram human subject having an infection (bacterial, fungal, or viral)): decreased
- Fold change (gene expression in cardiac tissue after Tempol administration) ([2]; hearts at 31 months, vs same food without Tempol, P-value 0.006): −1.18
- COX1 expression in cardiac tissue ([2]; microarray): statistically significant decrease in expression
